This is an account of results in patent US6486326B2, “iso-CBI and iso-CI analogs of CC-1065 duocarmycins” (The Scripps Research Institute, priority 1997, dated 2002).

One data set deals with L1210. The data set can be described thus: In vitro cytotoxic activity. It is filed as cell-based.
A short description of data set [1]: Solvolysis reactivity (UV, 50% CH3OH-aqueous buffer, pH 3). The settings on record: for k, solvolysis rate constant: pH 3, 25° C., CH3OH/aqueous buffer. The data set is classed as physicochemical. As to the method:
The solvolysis was followed spectrophotometrically by UV with the disappearance of the long-wavelength absorption band of the iso-CBI chromophore (397 nm), FIG. 3.
Solvolysis Reactivity: N-BOC-iso-CBI (31, 0.2 mg) was dissolved in CH3OH (1.5 mL) and mixed with pH 3 aqueous buffer (1.5 mL). The buffer contained 4:1:20 (v/v/v) 0.1 M citric acid, 0.2 M Na2HPO4, and H2O, respectively. The solvolysis solution was sealed and kept at 25° C. protected from light. The UV spectrum was measured at regular intervals every 1 h during the first 24 h, every 4 during the next 72 h, and every 12 h for an additional week. The decrease in the long wavelength absorption at 397 nm was monitored, FIG. 3. […] (FIG. 9).
Similarly, N—CO2Me-iso-CBI (33, 0.2 mg) was dissolved in CH3OH (1.5 mL) and mixed with pH 3 aqueous buffer (1.5 mL). The solvolysis solution was sealed and kept at 25° C. protected from light. The UV spectrum was measured at regular intervals every 1 h during the first 24 h, every 4 h during the next 72 h, and every 12 h for an additional week. The decrease in the long wavelength absorption at 395 nm was monitored, FIG. 3.
Similarly, 35 (0.2 mg) was dissolved in CH3OH (1.5 mL) and mixed with pH 3 aqueous buffer (1.5 mL). The solvolysis solution was sealed and kept at 25° C. protected from light. The UV spectrum was measured at regular intervals every 1 h during the first 12 h, every 2 h for the next 24 h, and every 4 h for an additional day. The decrease in the short wavelength absorption at 239 nm was monitored, FIG. 9.

For data set [2] the following is noted: pH 3; comparison agents 55-61; cited from earlier work.
Data set [3] concerns w794 DNA (SV40 DNA segment, 144 bp). Briefly: DNA alkylation selectivity and efficiency, thermally-induced strand cleavage of w794 DNA. It is filed as biochemical. As to the method:
FIG. 5 illustrates thermally-induced strand cleavage of w794 DNA (SV40 DNA segment, 144 bp, nucleotide nos. 138-5238); DNA-agent incubation for 24 hours at 25° C., removal of unbound agent and 30 minutes of thermolysis (100° C.), followed by denaturing 8% PAGE and autoradiography, lane 1, control DNA; lanes 2-5, Sanger G, C, A, and T sequencing reactions; lanes 6-7 (−)-iso-CBI-TMI (1×10^−3 and 1×10^−4 M); lanes 8-9, (+)-CBI-TMI (1×10^−5 and 1×10^−4 M); lanes 10-11, (+)-duocarmycin SA (1×10^−5 and 1×10^−6).
FIG. 7 illustrates thermally-induced strand cleavage of w794 DNA (SV40 DNA segment, 144 bp, nucleotide nos. 138-5238); DNA-agent incubation for 24 h at 25° C., removal of unbound agent and 30 min of thermolysis (100° C.), followed by denaturing 8% PAGE and autoradiography; lane 1, control DNA; lanes 2-5, Sanger G, C, A, and T sequencing reactions; lanes 6-8 (+)-duocarmycin SA (1×10^−4 to 1×10^−6 M); lanes9-11, seco-iso-CI-TMI (1×10^−3 to 1×10^−5 M).
DNA Alkylation Selectivity and Efficiency: The DNA alkylation properties of the agents were examined within w794 and w836 duplex DNA for which comparative results are available for related agents. (Boger, D. L., et al., J. Am. Chem. Soc. 1994, 116, 11335; Boger, D. L., et al., J. Am. Chem. Soc. 1994, 116, 6461; and Boger, D. L., et al., J. Am. Chem. Soc. 1995, 117, 11647) The alkylation site identification and the assessment of the relative selectivity among the available sites were obtained by thermally-induced strand cleavage of the singly 5′ end-labeled duplex DNA after exposure to the agents. Following treatment of the end-labeled duplex DNA with a range of agent concentrations and temperatures in the dark, the unbound agent was removed by EtOH precipitation of the DNA Redissolution of the DNA in aqueous buffer, thermolysis (100° C., 30 min) to induce strand cleavage at the sites of DNA alkylation, denaturing high-resolution polyacrylamide gel electrophoresis (PAGE) adjacent to Sanger dideoxynucleotide sequencing standards, and autoradiography led to identification of the DNA cleavage and alkylation sites. The full details of this procedure have been disclosed elsewhere. (Boger, D. L., et al., Tetrahedron 1991, 47, 2661.)
DNA Alkylation Studies: Selectivity and Efficiency: Eppendorf tubes containing singly ^32p 5′-end-labeled double-stranded DNA (9 μL) (Boger, D. L., et al., Tetrahedron 1991, 47, 2661.) in TE buffer (10 mM Tris, 1 mM EDTA, pH 7.5) were treated with the agents in DMSO (1 μL, at the specified concentrations). The solutions were mixed by vortexing and brief centrifugation and subsequently incubated at 4° C., 25° C. or 37° C. for 24-72 h. […]

A further data set has as its system calf thymus DNA. The data set can be described thus: Calf thymus DNA alkylation, quantitation of adenine N3 adduct. The settings on record: 4° C. The data set is classed as biochemical. As to the method: This was addressed through a study of the alkylation of calf thymus DNA. Optimized conditions for the alkylation were established for (−)-44 on an analytical scale (100 μg of agent). For this purpose, the long-wavelength UV absorption of the agent and the adduct provided a useful quantitative measure of the adenine adduct, unreacted starting material and any side products (solvolysis or rearrangement), Table 3. Analytical HPLC analysis was used to confirm the identity of the products through correlation of retention times and UV spectral data with authentic materials. The preparative DNA alkylation reaction and subsequent isolation of (+)-66 was carried out under conditions determined to provide complete consumption of the agent in the presence of a large excess of DNA Thus, extraction (EtOAc) of the aqueous buffer solution containing calf thymus DNA following alkylation (4° C., 72 h, 150 bp) afforded no recovered (−)-44, and only a small amount (<5%) of the rearranged product 65. Conducting the reaction at 4° C. in the presence of a large excess of DNA precluded competitive solvolysis. Thermal treatment of the alkylated DNA in aqueous 10 mM sodium phosphate buffer (100° C., 30 min, pH 7.0) followed by EtOAc extraction provided 66 in 90-95% conversion, ≧95% purity (by HPLC). Repeating this thermal treatment provided little or no additional adduct. No trace of a competing guanine adduct could be detected. This high conversion to a single adduct established that 44 participates exclusively in the adenine N3 alkylation reaction under the conditions examined.

Setting [4] is: cytotoxic activity, read-out: IC50.
[5] abbreviates: L1210, seco precursor, read-out: IC50, L1210.

Where two headings read alike, the source gives them in different places.

As usually defined, the IC50 is the concentration that gives 50% inhibition.

Turning to `NC(=O)N1CCc2c1ccc1[nH]c(C(=O)N3CCc4c3ccc3[nH]c(C(=O)N5CC6CC67C(=O)c6ccccc6C=C57)cc43)cc21` (racemic) [compound 54, 2-{[3-[N-(3-Carbamoyl-1,2-dihydro-3H-pyrrolo[3,2-e]indol-7-yl)carbonyl]-1,2-dihydro-3H-pyrrolo[3,2-e]indol-7-yl]carbonyl}-1,2,9,9a-tetrahydrocyclopropa[c]benzo[f]indol-1-one], the concentration for half-maximal inhibition (IC50) in the data set on L1210 (setting [4]) amounted to 0.05 nM. For `CC(C)(C)OC(=O)N1CC(COS(C)(=O)=O)c2c(O)cccc21` (centres unmarked) [compound 19], the concentration for half-maximal inhibition (IC50) in the data set with L1210 (setting [5]) stood at 10000 nM. In the case of `COC(=O)N1CC2CC23C(=O)c2ccccc2C=C13` (racemic) [compound 33, 2-(Methoxycarbonyl)-1,2,9,9a-tetrahydrocyclopropa[c]benzo[f]indol-8-one], the “k, solvolysis rate constant” value in data set [1] is 6.4e-06 s⁻¹.

On to `CC(C)(C)OC(=O)N1CC2CC23C=CC(=O)C=C13` (racemic) [compound 61], for which the “k, solvolysis rate constant” value in data set [2] was 0.0198 s⁻¹. On to `Cc1c[nH]c2c1C13CC1CN(C(=O)OC(C)(C)C)C3=CC2=O` (centres unmarked) [compound 55], for which the “k, solvolysis rate constant” value in data set [2] is 5.26e-06 s⁻¹. `COc1ccc2c(c1)C13CC1CN(C(=O)OC(C)(C)C)C3=CC2=O` (racemic) [compound 59]: the “k, solvolysis rate constant” value in data set [2] is 1.75e-06 s⁻¹. For `CC(C)(C)OC(=O)N1CC2CC23C1=CC(=O)c1ccccc13` (centres unmarked) [compound 58], in data set [2], the “k, solvolysis rate constant” value is 1.45e-06 s⁻¹. Turning to “2-[((E)-3-(2-Methoxyphenyl)propenyl)carbonyl]-1,2,9,9a-tetrahydrocyclopropa[c]benzo[f]indol-1-one [compound 48]”, the “cytotoxic potency, less potent than 44 and 46” value in the data set on L1210 is 40-50 ×. Turning to `CC(C)(C)OC(=O)N1CC2CC23C1=CC(=O)c1ccc(C#N)cc13` (racemic) [compound 60], the “k, solvolysis rate constant” value in data set [2] was 9.9e-07 s⁻¹. In the case of `COC(=O)c1cc2c([nH]1)C(=O)C=C1N(C(=O)OC(C)(C)C)CC3CC123` (centres unmarked) [compound 57], in data set [2], the “k, solvolysis rate constant” value is 1.08e-06 s⁻¹. As to `COc1cc2cc(C(=O)N3CC(COS(C)(=O)=O)c4c(O)cccc43)[nH]c2c(OC)c1OC` (centres unmarked) [compound 20], in data set [3] (24 h, 25° C., seco agent), the “DNA alkylation efficiency, less efficient than (+)-duocarmycin SA” value stood at 10 ×. Moreover, the IC50 in the data set with L1210 (setting [5]) was 6 nM. For the molecule `COC(=O)C1(C)NC2=C(C1=O)C13CC1CN(C(=O)OC(C)(C)C)C3=CC2=O` (centres unmarked) [compound 56], the “k, solvolysis rate constant” value in data set [2] is 1.75e-05 s⁻¹. `COc1cc2cc(C(=O)N3CC4CC45C(=O)c4ccccc4C=C35)[nH]c2c(OC)c1OC` (racemic) [compound 44, 2-[(5,6,7-Trimethoxyindol-2-yl)carbonyl]-1,2,9,9a-tetrahydrocyclopropa[c]benzo[f]indol-8-one]: the “adenine adduct 66” value in the data set on calf thymus DNA (72 h, 75 base-pair equiv, analytical scale, HPLC/UV) is reported as 94%; with calf thymus DNA (72 h, 150 base-pair equiv, analytical scale, HPLC/UV), 95%; in the data set with calf thymus DNA (72 h, 150 base-pair equiv, preparative scale, isolation and weight), 92%; with calf thymus DNA (120 h, 150 base-pair equiv, preparative scale, isolation and weight) it was 95%. Further, the “DNA alkylation sequence selectivity compared with (+)-duocarmycin SA” value in data set [3] was “same sequence selectivity”. Moreover, in the data set with L1210, the “cytotoxic potency, 44 compared with 46” value is listed as “equipotent”. On to `COc1ccc2[nH]c(C(=O)N3CC4CC45C(=O)c4ccccc4C=C35)cc2c1` (racemic) [compound 46, 2-[(5-Methoxyindol-2-yl)carbonyl]-1,2,9,9a-tetrahydrocyclopropa[c]benzo[f]indol-8-one], for which the “cytotoxic potency, 44 compared with 46” value in the data set on L1210 is recorded as “equipotent”. With `NC(=O)N1CCc2c1ccc1[nH]c(C(=O)N3CC4CC45C(=O)c4ccccc4C=C35)cc21` (racemic) [compound 52, 2-[(3-Carbamoyl-1,2-dihydro-3H-pyrrolo[3,2-e]indol-7-yl)carbonyl]-2,9,9a-tetrahydrocyclopropa[c]benzo[f]indol-8-one], the IC50 in the data set on L1210 (setting [4]) worked out at 0.2 nM.

On to `O=C1C2=NCC3CC23C(=O)c2ccccc21` (centres unmarked) [compound 35, 9,9a-1H-Dihydrocyclopropa[c]benzo[f]indol-3,8-dione], for which the “solvolysis reactivity relative to 31 or 33 (more reactive)” value in data set [1] (pH 3) was 5-6 ×. Also, the “k, solvolysis rate constant” value in data set [1] is 3.8e-05 s⁻¹.
